Assay results reported in PubChem BioAssay AID328 (DTP/NCI, 2004).
“And” between values parts separate entries of the source, which are not always exact repeats. Equal entries are not always repeated. Toxic doses and inconclusive results are not listed. The calls were made as follows: active = survival T/C of 150% or more; inactive = T/C below 125% in these data.

Test system: BDF1 mice, P388 leukemia ip, median survival T/C
Assay: NCI In Vivo Anticancer Drug Screen. Data for tumor model P388 Leukemia (intraperitoneal) in B6D2F1 (BDF1) mice
Details: endpoint: median survival time, higher = longer survival
How it was run: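 Vehicle-dosed animals serve as the reference; survival of compound-dosed, tumour-implanted mice is divided by it.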

[1] = dose: 12.5 mg/kg/injection, schedule: Q01DX009 (ip), vehicle: saline with Tween-80
[2] = dose: 25.0 mg/kg/injection, schedule: Q01DX009 (ip), vehicle: saline with Tween-80
[3] = dose: 50.0 mg/kg/injection, schedule: Q01DX009 (ip), vehicle: saline with Tween-80
[4] = dose: 100.0 mg/kg/injection, schedule: Q04DX003 (ip), vehicle: saline
[5] = dose: 200.0 mg/kg/injection, schedule: Q04DX003 (ip), vehicle: saline
[6] = dose: 25.0 mg/kg/injection, schedule: Q01DX009 (ip), vehicle: Klucel (hydroxypropylcellulose) (HPC)
[7] = dose: 25.0 mg/kg/injection, schedule: Q04DX003 (ip), vehicle: Klucel (hydroxypropylcellulose) (HPC)
[8] = dose: 50.0 mg/kg/injection, schedule: Q01DX009 (ip), vehicle: Klucel (hydroxypropylcellulose) (HPC)
[9] = dose: 50.0 mg/kg/injection, schedule: Q04DX003 (ip), vehicle: Klucel (hydroxypropylcellulose) (HPC)
[10] = dose: 100.0 mg/kg/injection, schedule: Q01DX009 (ip), vehicle: Klucel (hydroxypropylcellulose) (HPC)
[11] = dose: 100.0 mg/kg/injection, schedule: Q04DX003 (ip), vehicle: Klucel (hydroxypropylcellulose) (HPC)
[12] = dose: 3.12 mg/kg/injection, schedule: Q01DX009 (ip), vehicle: saline with Tween-80
[13] = dose: 6.25 mg/kg/injection, schedule: Q01DX009 (ip), vehicle: saline with Tween-80
[14] = dose: 100.0 mg/kg/injection, schedule: Q01DX009 (ip), vehicle: saline
[15] = dose: 200.0 mg/kg/injection, schedule: Q01DX009 (ip), vehicle: saline
[16] = dose: 400.0 mg/kg/injection, schedule: Q01DX009 (ip), vehicle: saline

Measured: T/C

Cc1ccc(NC(=O)Oc2ccc(Cl)c(C)c2)c([N+](=O)[O-])c1
inactive: [1] 108 % of control | [2] 102 % of control | [3] 117 % of control

CO/N=C1\CC(C)N2C(=O)C(C(C)C)NC(=O)C(NC(=O)c3c4nc5c(C(=O)NC6C(=O)NC(C(C)C)C(=O)N7C(C)CC(O)C7C(=O)N(C)CC(=O)N(C)C(C(C)C)C(=O)OC6C)ccc(C)c5oc-4c(C)c(=O)c3N)C(CO)OC(=O)C(C)N(C)C(=O)CN(C)C(=O)C12 (stereo not given)
inactive: dose: 0.05 mg/kg/injection, schedule: Q01DX009 (ip), vehicle: saline + alcohol 99 % of control | dose: 0.1 mg/kg/injection, schedule: Q01DX009 (ip), vehicle: saline + alcohol 100 % of control | dose: 0.15 mg/kg/injection, schedule: Q04DX003 (ip), vehicle: saline + alcohol 98 % of control | dose: 0.2 mg/kg/injection, schedule: Q01DX009 (ip), vehicle: saline + alcohol 102 % of control | dose: 0.3 mg/kg/injection, schedule: Q04DX003 (ip), vehicle: saline + alcohol 100 % of control | dose: 0.4 mg/kg/injection, schedule: Q01DX001 (ip), vehicle: saline + alcohol 92 % of control | dose: 0.6 mg/kg/injection, schedule: Q04DX003 (ip), vehicle: saline + alcohol 105 % of control | dose: 0.8 mg/kg/injection, schedule: Q01DX001 (ip), vehicle: saline + alcohol 110 % of control | dose: 1.2 mg/kg/injection, schedule: Q04DX003 (ip), vehicle: saline + alcohol 107 % of control | dose: 1.6 mg/kg/injection, schedule: Q01DX001 (ip), vehicle: saline + alcohol 110 % of control | dose: 2.4 mg/kg/injection, schedule: Q04DX003 (ip), vehicle: saline + alcohol 115 % of control | dose: 3.2 mg/kg/injection, schedule: Q01DX001 (ip), vehicle: saline + alcohol 118 % of control

Oc1c(-c2ccccc2)cc(-[n+]2c(-c3ccccc3)cc(-c3ccccc3)cc2-c2ccccc2)cc1-c1ccccc1
inactive: dose: 0.38 mg/kg/injection, schedule: Q01DX009 (ip), vehicle: saline with Tween-80 100 % of control | dose: 0.75 mg/kg/injection, schedule: Q01DX009 (ip), vehicle: saline with Tween-80 108 % of control | dose: 1.5 mg/kg/injection, schedule: Q01DX009 (ip), vehicle: saline with Tween-80 108 % of control

COc1ccc2c(C#N)cc3c4ccccc4ncc3c2c1
inactive: dose: 12.5 mg/kg/injection, schedule: Q01DX009 (ip), vehicle: distilled water + Tween-80 107 % of control | dose: 25.0 mg/kg/injection, schedule: Q01DX009 (ip), vehicle: distilled water + Tween-80 113 % of control | dose: 50.0 mg/kg/injection, schedule: Q01DX009 (ip), vehicle: distilled water + Tween-80 88 % of control | dose: 100.0 mg/kg/injection, schedule: Q01DX009 (ip), vehicle: distilled water + Tween-80 88 % of control

O=C(O)c1ccc(C(=O)O)c([N+](=O)[O-])c1
inactive: dose: 50.0 mg/kg/injection, schedule: Q04DX003 (ip), vehicle: saline 100 % of control | [4] 100 % of control | [5] 100 % of control

CC(/C=N/NC(N)=S)Cc1ccc(C(C)C)cc1 (stereo not given)
inactive: dose: 7.0 mg/kg/injection, schedule: Q01DX009 (ip), vehicle: saline with Tween-80 110 % of control | dose: 7.0 mg/kg/injection, schedule: Q04DX003 (ip), vehicle: saline with Tween-80 100 % of control | dose: 14.0 mg/kg/injection, schedule: Q01DX009 (ip), vehicle: saline with Tween-80 115 % of control | dose: 14.0 mg/kg/injection, schedule: Q04DX003 (ip), vehicle: saline with Tween-80 104 % of control | dose: 28.0 mg/kg/injection, schedule: Q04DX003 (ip), vehicle: saline with Tween-80 95 % of control

COc1ccc(N=O)c(O)c1
inactive: [6] 100 % of control and 109 % of control | dose: 25.0 mg/kg/injection, schedule: Q01DX010 (ip), vehicle: carboxymethylcellulose (CMC) 110 % of control | [7] 115 % of control | [8] 100 % of control and 109 % of control | dose: 50.0 mg/kg/injection, schedule: Q01DX010 (ip), vehicle: carboxymethylcellulose (CMC) 115 % of control | [9] 110 % of control | [10] 113 % of control and 118 % of control | [11] 110 % of control

O=C1c2ccccc2C(=O)c2c(O)c3c(c(O)c21)CC=CC3
inactive: [12] 107 % of control | [13] 112 % of control | [1] 104 % of control | [2] 98 % of control | [3] 98 % of control

CC1(C)C/C(=C\c2ccc(Br)cc2)C(=O)c2ccccc21
inactive: [10] 100 % of control | dose: 200.0 mg/kg/injection, schedule: Q01DX009 (ip), vehicle: Klucel (hydroxypropylcellulose) (HPC) 105 % of control | dose: 400.0 mg/kg/injection, schedule: Q01DX009 (ip), vehicle: Klucel (hydroxypropylcellulose) (HPC) 95 % of control

CCC1c2ccc3cc(OC)ccc3c2CC1CC(=O)O (stereo not given)
inactive: dose: 100.0 mg/kg/injection, schedule: Q01DX001 (ip), vehicle: other 100 % of control | dose: 200.0 mg/kg/injection, schedule: Q01DX001 (ip), vehicle: other 110 % of control | dose: 400.0 mg/kg/injection, schedule: Q01DX001 (ip), vehicle: other 105 % of control

CC(C)CCCC(C)C1CCC2C3CCC45CC4C(=O)CCC5(C)C3CCC12C (stereo not given)
inactive: dose: 100.0 mg/kg/injection, schedule: Q04DX003 (ip), vehicle: alcohol 115 % of control | dose: 200.0 mg/kg/injection, schedule: Q04DX003 (ip), vehicle: alcohol 100 % of control | dose: 400.0 mg/kg/injection, schedule: Q04DX003 (ip), vehicle: alcohol 100 % of control

COc1ccccc1OC(=O)Nc1ccc(C)c([N+](=O)[O-])c1
inactive: dose: 25.0 mg/kg/injection, schedule: Q04DX003 (ip), vehicle: saline with Tween-80 100 % of control | dose: 50.0 mg/kg/injection, schedule: Q04DX003 (ip), vehicle: saline with Tween-80 104 % of control | dose: 100.0 mg/kg/injection, schedule: Q04DX003 (ip), vehicle: saline with Tween-80 100 % of control

Br[CH2][Sn]([Br])([Br])[CH2]Br
inactive: [12] 111 % of control | [13] 98 % of control | [1] 115 % of control

O=C1NC(C2CC3C=CC2C3)Nc2ccccc21 (stereo not given)
inactive: dose: 12.5 mg/kg/injection, schedule: Q01DX009 (ip), vehicle: Klucel (hydroxypropylcellulose) (HPC) 104 % of control | dose: 12.5 mg/kg/injection, schedule: Q04DX003 (ip), vehicle: Klucel (hydroxypropylcellulose) (HPC) 100 % of control | [6] 104 % of control | [7] 86 % of control | [8] 95 % of control

COc1cccc2c1C(=O)c1c(OC)cccc1C2=O
inactive: [7] 98 % of control | [9] 97 % of control | [11] 103 % of control | dose: 200.0 mg/kg/injection, schedule: Q04DX003 (ip), vehicle: Klucel (hydroxypropylcellulose) (HPC) 98 % of control | dose: 400.0 mg/kg/injection, schedule: Q04DX003 (ip), vehicle: Klucel (hydroxypropylcellulose) (HPC) 97 % of control

COC(=O)C(=NO)C(=O)OC
inactive: [14] 104 % of control | [15] 96 % of control | [16] 96 % of control

BrC1C2C=CCC1CC2 (stereo not given)
inactive: [14] 100 % of control | [4] 91 % of control | [15] 90 % of control | [5] 91 % of control | [16] 104 % of control | dose: 400.0 mg/kg/injection, schedule: Q04DX003 (ip), vehicle: saline 95 % of control

O=C(O)C(=O)c1ccc(-c2ccccc2)cc1
inactive: [2] 90 % of control | [3] 100 % of control | dose: 100.0 mg/kg/injection, schedule: Q01DX009 (ip), vehicle: saline with Tween-80 113 % of control | dose: 150.0 mg/kg/injection, schedule: Q01DX009 (ip), vehicle: saline with Tween-80 110 % of control

C[N+](C)=C1C=CC(=C2C=CSC=C2)C=C1
inactive: dose: 1.56 mg/kg/injection, schedule: Q01DX009 (ip), vehicle: saline 117 % of control | dose: 3.12 mg/kg/injection, schedule: Q01DX009 (ip), vehicle: saline 124 % of control | dose: 6.25 mg/kg/injection, schedule: Q01DX009 (ip), vehicle: saline 123 % of control | dose: 12.5 mg/kg/injection, schedule: Q01DX009 (ip), vehicle: saline 100 % of control
